In PubChem BioAssay (NCI):
Several values for one entry are separate records, joined by “and”; a condition that tells them apart may be missing. Equal values may be shown once.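 Where inhibition never reached the appropriate level, the endpoint shown equals the highest concentration tested. Otherwise, values were interpolated linearly from a five-concentration, 48-hour dose response in 96-well plates. At the GI50, growth is halved. TGI marks complete inhibition of growth.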

The compounds below were run on SN12C renal (assay: NCI tumour cell line growth inhibition, 48 h).
`NC(=O)c1sc(-n2cnc3ccccc32)cc1OCc1ccccc1Br` showed a GI50 of 14.2 µM and a TGI greater than 25 µM.
`N#CC(c1ccc(Cl)cc1)c1cccc(C(C#N)c2ccc(Cl)cc2)n1` (centres undefined) gave a TGI greater than 100 µM.
With `O=C1/C(=C/c2ccccc2)CN(C(=O)C(Cl)(Cl)Cl)C/C1=C\c1ccccc1` the TGI was 3.12 µM.
Compound `O=S1(=O)c2ccccc2NC(c2ccc3ccccc3c2)CC1c1ccccc1F` (centres undefined) has a TGI greater than 100 µM.
`Cc1nc2ccccc2c(N)c1-c1cc(C)c2c(C)nc3ccccc3c2n1` showed a GI50 of 1.41 µM and a TGI of 2.9 µM.
`Cc1ccc(NC2=C(Cl)C(=O)N(Cc3ccccc3)C2=O)cc1O` gave a GI50 of 25.6 µM and a TGI of 93.8 µM.

These compounds were tested on HOP-92 NSCLC (assay: NCI tumour cell line growth inhibition, 48 h).
`CCN(CCO)CC1CCCC2CCCCC21` (centres undefined) was tested, and the TGI was greater than 100 µM.
In the case of `CC[C@@]1(O)C[C@H](OC2CC(N(C)C)C(O)C(C)O2)c2c(O)c3c(c(O)c2[C@H]1OC1CC(N(C)C)C(O)C(C)O1)C(=O)c1cccc(O)c1C3=O` (some centres undefined), the GI50 is reported as less than 0.01 µM.
`COC1(OC)CCC2C1C1CCC(OC)(OC)C21` (centres undefined) gave a TGI greater than 50 µM.
`NNC(=O)Nc1cccnc1` gave a TGI greater than 100 µM.
With `CC/C=C\CCC/C=C1/C(=O)C=C[C@@H]1C/C=C\CCCC(=O)OC` the GI50 was 9.77 µM and the TGI was 23.6 µM.
Work on `COc1ccc(-c2nc3sccn3c2/C(N)=N/C(=N)N)cc1OC` yielded a GI50 of 56.5 µM and a TGI greater than 100 µM.
`Cn1cnc([N+](=O)[O-])c1Sc1nnc(-c2cccnc2)n1C` showed a TGI of 30.6 µM.
`CCOC(=O)C1=C(C)NC(=S)NC1c1ccccc1` (centres undefined) was tested, and the TGI was greater than 100 µM.
`COC1=CC(=O)c2nc(-c3ccncc3)[nH]c2C1=O` gave a GI50 of 31.4 µM and a TGI greater than 100 µM.
In the case of `O=C(/C=C/c1ccccc1)NC1C=Nc2ccc(Cl)cc2NC1=O` (centres undefined), the TGI is reported as greater than 100 µM.
Compound `CC(C)C/C(CC(=O)CCC(=O)Nc1ccccc1[N+](=O)[O-])=N\NC(=O)c1cc2ccccc2cc1O` has a TGI greater than 100 µM.
`O=C(O)c1ccccc1[Se][Se]c1ccccc1C(=O)O` gave a TGI greater than 100 µM.
For `COc1cc(CNc2cnc3cc(N)cc(N)c3n2)cc(OC)c1`, the GI50 was 10.3 µM and the TGI was 25.9 µM.
`O=C(O)CCc1coc2ccc(O)cc12` showed a TGI greater than 100 µM.
Compound `Clc1cc2nsnc2c(Cl)n1` has a TGI of 33.1 µM.
`COc1cc(Cc2cnc(/N=C3\C(=O)N(CN4CCN(c5c(F)cc6c(=O)c(C(=O)O)cn(C7CC7)c6c5OC)CC4C)c4ccc(F)cc43)nc2N)cc(OC)c1OC` (centres undefined) showed a GI50 of 7.64 µM and a TGI of 21.8 µM.
`O=C(Nc1ccccc1)NS(=O)(=O)c1ccc(-n2nc3c(c2-c2cccs2)Cc2ccccc2-3)cc1` gave a GI50 of 12.3 µM and a TGI greater than 100 µM.
With `CCCCOC(=O)C1OC(O[C@H]2CCC3(C)C(CCC4(C)C3CC=C3C5CC(C)(C)CCC5(C(=O)O)CC[C@]34C)C2(C)C)C(OC2OC(CO)C(O)C(O)C2O)C(OC2OC(CO)C(O)C(O)C2O)C1O` (some centres undefined) the GI50 was 33.2 µM and the TGI was greater than 100 µM.
Work on `CN1C(=O)C(C)(C)C2(SC(C)(C)C2(C)C)N(C)C1=S` (centres undefined) yielded a TGI greater than 100 µM.
In the case of `CC1=C(C(=O)Nc2ccc(Cl)c(Cl)c2)C(c2cccc(Oc3ccccc3)c2)NC(=S)N1` (centres undefined), the GI50 is reported as 13.3 µM and the TGI is reported as 31.2 µM.
For `CC1(c2ccc(F)cc2)C(C#N)C(=O)NC(=O)C1C#N` (centres undefined), the TGI was greater than 100 µM.
In the case of `O=C1C2C(C(=O)N1OS(=O)(=O)c1ccccc1)N(Cc1ccccc1)C(=O)N2Cc1ccccc1` (centres undefined), the TGI is reported as greater than 100 µM.
`Cc1cc(C)nc(NS(=O)(=O)c2ccc(NC(=O)c3ccc(Cl)c4c(Nc5ccc(S(=O)(=O)Nc6nc(C)cc(C)n6)cc5)c5ccccc5nc34)cc2)n1` gave a TGI of 5.93 µM.
`COc1ccc2c3c1C(=O)CCCC3CO2` (centres undefined) gave a TGI greater than 100 µM.
`N#CC(c1ccc(Cl)cc1)c1cccc(C(C#N)c2ccc(Cl)cc2)n1` (centres undefined) gave a TGI of 60.6 µM.
For `Cc1nc2ccccc2c(N)c1-c1cc(C)c2c(C)nc3ccccc3c2n1`, the GI50 was 1.46 µM and the TGI was 3.38 µM.

What follows are compounds tested on RPMI-8226 leukemia (assay: NCI tumour cell line growth inhibition, 48 h).
Compound `CCN(CCO)CC1CCCC2CCCCC21` (centres undefined) has a TGI greater than 100 µM.
In the case of `CC[C@@]1(O)C[C@H](OC2CC(N(C)C)C(O)C(C)O2)c2c(O)c3c(c(O)c2[C@H]1OC1CC(N(C)C)C(O)C(C)O1)C(=O)c1cccc(O)c1C3=O` (some centres undefined), the GI50 is reported as less than 0.01 µM and the TGI is reported as 0.581 µM and 0.0919 µM.
Compound `COC1(OC)CCC2C1C1CCC(OC)(OC)C21` (centres undefined) has a TGI greater than 50 µM.
With `NNC(=O)Nc1cccnc1` the TGI was greater than 100 µM.
For `CC/C=C\CCC/C=C1/C(=O)C=C[C@@H]1C/C=C\CCCC(=O)OC`, the GI50 was 2.93 µM and the TGI was 8.15 µM.
`COc1ccc(-c2nc3sccn3c2/C(N)=N/C(=N)N)cc1OC` was tested, and the GI50 was 58.5 µM and the TGI was greater than 100 µM.
`CCCCCCCCCCCOc1ccc(C(=O)C(=O)c2ccc(OCCCCCCCCCCC)c(OCCCCCCCCCCC)c2)cc1OCCCCCCCCCCC` gave a TGI greater than 100 µM.
`Cn1cnc([N+](=O)[O-])c1Sc1nnc(-c2cccnc2)n1C` showed a TGI of 49.4 µM.
`CCOC(=O)C1=C(C)NC(=S)NC1c1ccccc1` (centres undefined) showed a TGI greater than 65.6 µM.
For `COC1=CC(=O)c2nc(-c3ccncc3)[nH]c2C1=O`, the GI50 was greater than 100 µM and the TGI was greater than 100 µM.
`CC(C)C/C(CC(=O)CCC(=O)Nc1ccccc1[N+](=O)[O-])=N\NC(=O)c1cc2ccccc2cc1O` gave a TGI greater than 100 µM.
Compound `O=C(O)c1ccccc1[Se][Se]c1ccccc1C(=O)O` has a TGI greater than 100 µM.
`COc1cc(CNc2cnc3cc(N)cc(N)c3n2)cc(OC)c1` was tested, and the GI50 was 6 µM and the TGI was 20 µM.
`O=C(O)CCc1coc2ccc(O)cc12` gave a TGI greater than 100 µM.
`Clc1cc2nsnc2c(Cl)n1` showed a TGI of 62.5 µM.
Compound `N#CC1C(C#N)C2(c3ccccc3)C(c3ccccc3)=NN(c3ccccc3)CC12` (centres undefined) has a TGI greater than 100 µM.
With `COc1cc(Cc2cnc(/N=C3\C(=O)N(CN4CCN(c5c(F)cc6c(=O)c(C(=O)O)cn(C7CC7)c6c5OC)CC4C)c4ccc(F)cc43)nc2N)cc(OC)c1OC` (centres undefined) the GI50 was 2.31 µM and the TGI was 8.24 µM.
Compound `Cc1cccc2c(=O)cc(-c3ccccc3)[nH]c12` has a TGI greater than 100 µM.
`O=C(Nc1ccccc1)NS(=O)(=O)c1ccc(-n2nc3c(c2-c2cccs2)Cc2ccccc2-3)cc1` gave a GI50 of 5.49 µM and a TGI of 66.4 µM.
In the case of `Cc1nc2ccccc2c(=O)n1-c1ccccc1I`, the TGI is reported as greater than 100 µM.
Work on `CN1C(=O)C(C)(C)C2(SC(C)(C)C2(C)C)N(C)C1=S` (centres undefined) yielded a TGI greater than 100 µM.
With `N#CCCN(CCC#N)c1ccc(/C=C2\N=C(c3cc([N+](=O)[O-])ccc3Cl)OC2=O)cc1` the TGI was greater than 100 µM.
In the case of `CC1=C(C(=O)Nc2ccc(Cl)c(Cl)c2)C(c2cccc(Oc3ccccc3)c2)NC(=S)N1` (centres undefined), the GI50 is reported as 11.2 µM and the TGI is reported as greater than 50 µM.
Compound `CC1(c2ccc(F)cc2)C(C#N)C(=O)NC(=O)C1C#N` (centres undefined) has a TGI greater than 100 µM.
`O=C1C2C(C(=O)N1OS(=O)(=O)c1ccccc1)N(Cc1ccccc1)C(=O)N2Cc1ccccc1` (centres undefined) showed a TGI greater than 100 µM.
`COc1ccc2c(C3=C(c4cn(C)c5ccccc45)C(=O)NC3=O)cn(C)c2c1` gave a GI50 of 0.11 µM and a TGI greater than 25 µM.
With `Cc1ccc(N=Nc2ccc(N(CCC#N)CCC#N)cc2C)c(Br)c1` the TGI was 35.8 µM.
`Cc1cc(C)nc(NS(=O)(=O)c2ccc(NC(=O)c3ccc(Cl)c4c(Nc5ccc(S(=O)(=O)Nc6nc(C)cc(C)n6)cc5)c5ccccc5nc34)cc2)n1` showed a TGI greater than 100 µM.
For `COc1ccc2c3c1C(=O)CCCC3CO2` (centres undefined), the TGI was greater than 100 µM.
In the case of `NC(=O)c1sc(-n2cnc3ccccc32)cc1OCc1ccccc1Br`, the GI50 is reported as 12.6 µM and the TGI is reported as greater than 25 µM.
Work on `N#CC(c1ccc(Cl)cc1)c1cccc(C(C#N)c2ccc(Cl)cc2)n1` (centres undefined) yielded a TGI greater than 100 µM.
For `O=C1/C(=C/c2ccccc2)CN(C(=O)C(Cl)(Cl)Cl)C/C1=C\c1ccccc1`, the TGI was 0.314 µM.
`O=S1(=O)c2ccccc2NC(c2ccc3ccccc3c2)CC1c1ccccc1F` (centres undefined) gave a TGI greater than 100 µM.
`Cc1nc2ccccc2c(N)c1-c1cc(C)c2c(C)nc3ccccc3c2n1` gave a GI50 of 0.173 µM and a TGI of 0.52 µM.
With `Cc1ccc(NC2=C(Cl)C(=O)N(Cc3ccccc3)C2=O)cc1O` the GI50 was 9.26 µM and the TGI was 47.5 µM.

The compounds below were run on MALME-3M melanoma (assay: NCI tumour cell line growth inhibition, 48 h).
`CCN(CCO)CC1CCCC2CCCCC21` (centres undefined) was tested, and the TGI was greater than 100 µM.
Compound `CC[C@@]1(O)C[C@H](OC2CC(N(C)C)C(O)C(C)O2)c2c(O)c3c(c(O)c2[C@H]1OC1CC(N(C)C)C(O)C(C)O1)C(=O)c1cccc(O)c1C3=O` (some centres undefined) has a GI50 of less than 0.01 µM.
`COC1(OC)CCC2C1C1CCC(OC)(OC)C21` (centres undefined) showed a TGI greater than 50 µM.
In the case of `NNC(=O)Nc1cccnc1`, the TGI is reported as greater than 100 µM.
Work on `CC/C=C\CCC/C=C1/C(=O)C=C[C@@H]1C/C=C\CCCC(=O)OC` yielded a GI50 of 4.76 µM and a TGI of 16.6 µM.
Compound `COc1ccc(-c2nc3sccn3c2/C(N)=N/C(=N)N)cc1OC` has a GI50 of 13.3 µM and a TGI of 32.9 µM.
Compound `CCCCCCCCCCCOc1ccc(C(=O)C(=O)c2ccc(OCCCCCCCCCCC)c(OCCCCCCCCCCC)c2)cc1OCCCCCCCCCCC` has a TGI greater than 100 µM.
`Cn1cnc([N+](=O)[O-])c1Sc1nnc(-c2cccnc2)n1C` was tested, and the TGI was 33.2 µM.
In the case of `CCOC(=O)C1=C(C)NC(=S)NC1c1ccccc1` (centres undefined), the TGI is reported as greater than 100 µM.
`COC1=CC(=O)c2nc(-c3ccncc3)[nH]c2C1=O` gave a GI50 greater than 100 µM and a TGI greater than 100 µM.
In the case of `O=C(/C=C/c1ccccc1)NC1C=Nc2ccc(Cl)cc2NC1=O` (centres undefined), the TGI is reported as 85.1 µM.
Compound `CC(C)C/C(CC(=O)CCC(=O)Nc1ccccc1[N+](=O)[O-])=N\NC(=O)c1cc2ccccc2cc1O` has a TGI greater than 100 µM.
With `O=C(O)c1ccccc1[Se][Se]c1ccccc1C(=O)O` the TGI was greater than 100 µM.
Compound `Clc1cc2nsnc2c(Cl)n1` has a TGI of 31.3 µM.
In the case of `N#CC1C(C#N)C2(c3ccccc3)C(c3ccccc3)=NN(c3ccccc3)CC12` (centres undefined), the TGI is reported as greater than 100 µM.
